Test results reported in ChEMBL document CHEMBL3865783, “Synthesis and antimicrobial activity against Pseudomonas aeruginosa of macrocyclic β-hairpin peptidomimetic antibiotics containing N-methylated amino acids” (Bioorg Med Chem, 2016).

Legend:
[1] = target: T1, LPS-assembly protein LptD (Pseudomonas aeruginosa (strain ATCC 15692 / DSM 22644 / CIP 104116 /JCM 14847 / LMG 12228 / 1C / PRS 101 / PAO1)) (UniProt Q9I5U2); test: Inhibition of LptD in Pseudomonas aeruginosa PAO1 assessed as microbial growth inhibition by microbroth dilution method
T1 sequence (whole entry): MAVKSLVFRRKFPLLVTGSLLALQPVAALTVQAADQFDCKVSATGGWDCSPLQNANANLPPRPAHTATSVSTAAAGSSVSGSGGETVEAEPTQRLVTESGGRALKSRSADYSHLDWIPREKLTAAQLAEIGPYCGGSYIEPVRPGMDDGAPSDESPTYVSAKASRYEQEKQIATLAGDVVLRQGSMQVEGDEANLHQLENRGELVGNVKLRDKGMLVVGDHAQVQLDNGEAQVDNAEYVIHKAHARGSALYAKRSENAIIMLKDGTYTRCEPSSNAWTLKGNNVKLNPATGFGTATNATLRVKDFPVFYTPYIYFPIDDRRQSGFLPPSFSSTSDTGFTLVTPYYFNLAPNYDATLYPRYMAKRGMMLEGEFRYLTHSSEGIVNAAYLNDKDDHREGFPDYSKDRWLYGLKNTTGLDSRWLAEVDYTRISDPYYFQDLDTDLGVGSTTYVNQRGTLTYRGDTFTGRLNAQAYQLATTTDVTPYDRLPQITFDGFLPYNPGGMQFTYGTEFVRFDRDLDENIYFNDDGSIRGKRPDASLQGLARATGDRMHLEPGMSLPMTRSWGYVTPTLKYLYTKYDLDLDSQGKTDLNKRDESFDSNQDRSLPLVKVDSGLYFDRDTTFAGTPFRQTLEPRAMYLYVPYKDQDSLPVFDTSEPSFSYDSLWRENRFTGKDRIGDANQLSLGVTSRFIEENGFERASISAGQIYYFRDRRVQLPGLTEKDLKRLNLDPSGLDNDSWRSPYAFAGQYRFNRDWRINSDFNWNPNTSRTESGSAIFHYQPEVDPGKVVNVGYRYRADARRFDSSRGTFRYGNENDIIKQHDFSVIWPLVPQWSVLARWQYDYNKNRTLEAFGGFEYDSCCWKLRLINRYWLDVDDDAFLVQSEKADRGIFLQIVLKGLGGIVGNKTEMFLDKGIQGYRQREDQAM

Pseudomonas aeruginosa = test: Inhibition of LptD in Pseudomonas aeruginosa ATCC 27853 assessed as microbial growth inhibition by microbroth dilution method

CC(C)C[C@@H]1NC(=O)[C@H](Cc2c[nH]c3ccccc23)NC(=O)[C@H]([C@@H](C)O)NC(=O)[C@@H]2CCCN2C(=O)[C@H]2CCCN2C(=O)[C@H](CCCCN)NC(=O)[C@H](C)NC(=O)[C@H](CCN)NC(=O)[C@H](CCCN)NC(=O)[C@H](Cc2c[nH]c3ccccc23)N(C)C(=O)[C@H](CCCNC(=N)N)NC(=O)[C@@H](CCCCN)NC(=O)[C@H](CCCN)NC(=O)[C@H](CCN)NC1=O
MIC [1]: 0.13 µg/mL | MIC (Pseudomonas aeruginosa): 0.023 µg/mL

CC(C)C[C@@H]1NC(=O)[C@H](Cc2c[nH]c3ccccc23)N(C)C(=O)[C@H]([C@@H](C)O)NC(=O)[C@@H]2CCCN2C(=O)[C@H]2CCCN2C(=O)[C@H](CCCCN)NC(=O)[C@H](C)NC(=O)[C@H](CCN)NC(=O)[C@H](CCCN)NC(=O)[C@H](Cc2c[nH]c3ccccc23)NC(=O)[C@H](CCCNC(=N)N)NC(=O)[C@@H](CCCCN)NC(=O)[C@H](CCCN)NC(=O)[C@H](CCN)NC1=O
MIC [1]: > 64 µg/mL | MIC (Pseudomonas aeruginosa): > 64 µg/mL

CC(C)C[C@@H]1NC(=O)[C@H](Cc2c[nH]c3ccccc23)NC(=O)[C@H]([C@@H](C)O)NC(=O)[C@@H]2CCCN2C(=O)[C@H]2CCCN2C(=O)[C@H](CCCCN)N(C)C(=O)[C@H](C)NC(=O)[C@H](CCN)NC(=O)[C@H](CCCN)NC(=O)[C@H](Cc2c[nH]c3ccccc23)NC(=O)[C@H](CCCNC(=N)N)NC(=O)[C@@H](CCCCN)NC(=O)[C@H](CCCN)NC(=O)[C@H](CCN)NC1=O
MIC [1]: > 64 µg/mL | MIC (Pseudomonas aeruginosa): > 64 µg/mL

CC(C)C[C@@H]1NC(=O)[C@H](Cc2c[nH]c3ccccc23)NC(=O)[C@H]([C@@H](C)O)NC(=O)[C@@H]2CCCN2C(=O)[C@H]2CCCN2C(=O)[C@H](CCCCN)NC(=O)[C@H](C)NC(=O)[C@H](CCN)NC(=O)[C@H](CCCN)NC(=O)[C@H](Cc2c[nH]c3ccccc23)NC(=O)[C@H](CCCNC(=N)N)NC(=O)[C@@H](CCCCN)NC(=O)[C@H](CCCN)N(C)C(=O)[C@H](CCN)NC1=O
MIC [1]: 0.008 µg/mL | MIC (Pseudomonas aeruginosa): 0.009 µg/mL

CC(C)C[C@@H]1NC(=O)[C@H](Cc2c[nH]c3ccccc23)NC(=O)[C@H]([C@@H](C)O)NC(=O)[C@@H]2CCCN2C(=O)[C@H]2CCCN2C(=O)[C@H](CCCCN)NC(=O)[C@H](C)NC(=O)[C@H](CCN)NC(=O)[C@H](CCCN)NC(=O)[C@H](Cc2c[nH]c3ccccc23)NC(=O)[C@H](CCCNC(=N)N)N(C)C(=O)[C@@H](CCCCN)NC(=O)[C@H](CCCN)NC(=O)[C@H](CCN)NC1=O
MIC [1]: 0.75 µg/mL | MIC (Pseudomonas aeruginosa): 0.38 µg/mL

CC(C)C[C@@H]1NC(=O)[C@H](Cc2c[nH]c3ccccc23)NC(=O)[C@H]([C@@H](C)O)NC(=O)[C@@H]2CCCN2C(=O)[C@H]2CCCN2C(=O)[C@H](CCCCN)NC(=O)[C@H](C)NC(=O)[C@H](CCN)NC(=O)[C@H](CCCN)NC(=O)[C@H](Cc2c[nH]c3ccccc23)NC(=O)[C@H](CCCNC(=N)N)NC(=O)[C@@H](CCCCN)NC(=O)[C@H](CCCN)NC(=O)[C@H](CCN)N(C)C1=O
MIC [1]: 0.009 µg/mL | MIC (Pseudomonas aeruginosa): 0.005 µg/mL

CC(C)C[C@@H]1NC(=O)[C@H](Cc2c[nH]c3ccccc23)NC(=O)[C@H]([C@@H](C)O)NC(=O)[C@@H]2CCCN2C(=O)[C@H]2CCCN2C(=O)[C@H](CCCCN)NC(=O)[C@H](C)N(C)C(=O)[C@H](CCN)NC(=O)[C@H](CCCN)NC(=O)[C@H](Cc2c[nH]c3ccccc23)NC(=O)[C@H](CCCNC(=N)N)NC(=O)[C@@H](CCCCN)NC(=O)[C@H](CCCN)NC(=O)[C@H](CCN)NC1=O
MIC [1]: > 64 µg/mL | MIC (Pseudomonas aeruginosa): > 64 µg/mL

CC(C)C[C@@H]1NC(=O)[C@H](Cc2c[nH]c3ccccc23)NC(=O)[C@H]([C@@H](C)O)NC(=O)[C@@H]2CCCN2C(=O)[C@H]2CCCN2C(=O)[C@H](CCCCN)NC(=O)[C@H](C)NC(=O)[C@H](CCN)NC(=O)[C@H](CCCN)N(C)C(=O)[C@H](Cc2c[nH]c3ccccc23)NC(=O)[C@H](CCCNC(=N)N)NC(=O)[C@@H](CCCCN)NC(=O)[C@H](CCCN)NC(=O)[C@H](CCN)NC1=O
MIC [1]: 16 µg/mL | MIC (Pseudomonas aeruginosa): 12 µg/mL

CC(C)C[C@@H]1NC(=O)[C@H](Cc2c[nH]c3ccccc23)NC(=O)[C@H]([C@@H](C)O)NC(=O)[C@@H]2CCCN2C(=O)[C@H]2CCCN2C(=O)[C@H](CCCCN)NC(=O)[C@H](C)NC(=O)[C@H](CCN)NC(=O)[C@H](CCCN)NC(=O)[C@H](Cc2c[nH]c3ccccc23)NC(=O)[C@H](CCCNC(=N)N)NC(=O)[C@@H](CCCCN)N(C)C(=O)[C@H](CCCN)NC(=O)[C@H](CCN)NC1=O
MIC [1]: 0.025 µg/mL | MIC (Pseudomonas aeruginosa): 0.012 µg/mL

CC(C)C[C@@H]1NC(=O)[C@H](Cc2c[nH]c3ccccc23)NC(=O)[C@H]([C@@H](C)O)NC(=O)[C@@H]2CCCN2C(=O)[C@H]2CCCN2C(=O)[C@H](CCCCN)NC(=O)[C@H](C)NC(=O)[C@H](CCN)N(C)C(=O)[C@H](CCCN)NC(=O)[C@H](Cc2c[nH]c3ccccc23)NC(=O)[C@H](CCCNC(=N)N)NC(=O)[C@@H](CCCCN)NC(=O)[C@H](CCCN)NC(=O)[C@H](CCN)NC1=O
MIC [1]: 12 µg/mL | MIC (Pseudomonas aeruginosa): 1 µg/mL

CC(C)C[C@H]1C(=O)N[C@@H](CCN)C(=O)N[C@@H](CCCN)C(=O)N[C@H](CCCCN)C(=O)N[C@@H](CCCNC(=N)N)C(=O)N[C@@H](Cc2c[nH]c3ccccc23)C(=O)N[C@@H](CCCN)C(=O)N[C@@H](CCN)C(=O)N[C@@H](C)C(=O)N[C@@H](CCCCN)C(=O)N2CCC[C@@H]2C(=O)N2CCC[C@H]2C(=O)N[C@@H]([C@@H](C)O)C(=O)N[C@@H](Cc2c[nH]c3ccccc23)C(=O)N1C
MIC [1]: > 64 µg/mL | MIC (Pseudomonas aeruginosa): > 64 µg/mL

CC(C)C[C@@H]1NC(=O)[C@H](Cc2c[nH]c3ccccc23)NC(=O)[C@H]([C@@H](C)O)N(C)C(=O)[C@@H]2CCCN2C(=O)[C@H]2CCCN2C(=O)[C@H](CCCCN)NC(=O)[C@H](C)NC(=O)[C@H](CCN)NC(=O)[C@H](CCCN)NC(=O)[C@H](Cc2c[nH]c3ccccc23)NC(=O)[C@H](CCCNC(=N)N)NC(=O)[C@@H](CCCCN)NC(=O)[C@H](CCCN)NC(=O)[C@H](CCN)NC1=O
MIC [1]: 0.38 µg/mL | MIC (Pseudomonas aeruginosa): 0.19 µg/mL

CC(C)C[C@@H]1NC(=O)[C@H](Cc2c[nH]c3ccccc23)NC(=O)[C@H]([C@@H](C)O)NC(=O)[C@@H]2CCCN2C(=O)[C@H]2CCCN2C(=O)[C@H](CCCCN)NC(=O)[C@H](C)NC(=O)[C@H](CCN)NC(=O)[C@H](CCCN)NC(=O)[C@H](Cc2c[nH]c3ccccc23)NC(=O)[C@H](CCCNC(=N)N)NC(=O)[C@@H](CCCCN)NC(=O)[C@H](CCCN)NC(=O)[C@H](CCN)NC1=O
MIC [1]: 0.015 µg/mL | MIC (Pseudomonas aeruginosa): 0.008 µg/mL
